Data on two compounds can be found in patent US11633497B2, “Anti-c-Met antibody drug conjugates” (AbbVie Inc., priority 2021, dated 2023).

Each structure is given as a SMILES string. Where two headings read alike, the source gives them in different places.

Usually EC50 stands for the concentration at which the effect is half-maximal.

The subject of test [1] is A375 cells (malignant melanoma). Briefly: Cell proliferation, CellTiter-Glo luminescence, A375. It counts as cell-based. To be noted: Homo sapiens, A-375, read-out: TOP1i Compound Potency EC50, A375. The text has this:
Proliferation of Calu-6 cells (lung adenocarcinoma) and A375 cells (malignant melanoma) were quantified using CellTiter-Glo® luminescence.
For orientation: In ATP-based viability assays light output follows the ATP content of the culture.

The test system of test [2] is Calu-6 cells (lung adenocarcinoma). As to the kind of experiment: Cell proliferation, CellTiter-Glo luminescence, Calu-6. It counts as cell-based. The settings on record: Homo sapiens. As to the method: The effect of TOP1i drugs on cell viability was assessed by monitoring ATP presence for metabolically active cells. Proliferation of Calu-6 cells (lung adenocarcinoma) and A375 cells (malignant melanoma) were quantified using CellTiter-Glo® luminescence.

For the compound `CC[C@@]1(O)C(=O)OCc2c1cc1n(c2=O)Cc2c-1nc1cc3c(cc1c2C12CC(N)(C1)C2)OCO3` [Example 1G, (7S)-14-(3-aminobicyclo[1.1.1]pentan-1-yl)-7-ethyl-7-hydroxy-2H,10H-[1,3]dioxolo[4,5-g]pyrano[3′,4′:6,7]indolizino[1,2-b]quinoline-8,11(7H,13H)-dione], the EC50 in test [1] amounted to 0.5 nM; in test [2] (Calu-6, read-out: TOP1i Compound Potency EC50, Calu-6) it was 0.57 nM.
As to `CCc1c2c(nc3ccc(O)cc13)-c1cc3c(c(=O)n1C2)COC(=O)[C@]3(O)CC` [SN-38, reference compound], the EC50 in test [2] (Calu-6 cell viability, CellTiter-Glo, read-out: TOP1i Compound Potency EC50, Calu-6) was found to be 6.58 nM.
